“Also recorded” adds a separate entry of the source.
B1: His-GIV-CT: Recombinant His-tagged GIV-CT (aa 1660-1870) expressed from pET28b (protein)
chain: ETLESRHHKIKTGSPGSEVVTLQQFLEESNKLTSVQIKSSSQENLLDEVMKSLSVSSDFLGKDKPVSCGLARSVSGKTPGDFYDRRTTKPEFLRPGPRKTEDTYFISSAGKPTPGTQGKIKLVKESSLSRQSKDSNPYATLPRASSVISTAEGTTRRTSIHDFLTKDSRLPISVDSPPAAADSNTTAASNVDKVQESRNSKSRSREQQSS
modifications: left off: small tags and cut ends
notes: Recombinant His-tagged GIV-CT (aa 1660-1870) expressed from pET28b

Experiments:
[1] = system: GIV, IRS1 and Akt phosphorylation; assay: Metabolic insulin signaling in L6 cells by immunoblotting; assay type: cell-based, rat
Protocol: (§1) Transfection was carried out with GeneJuice (Novagen) for DNA plasmids or Oligofectamine (Invitrogen) for siRNA oligos according to manufacturer's protocols. Silencer negative Control scrambled (Scr) siRNA used as control was purchased from Ambion and the previously validated (Enomoto et al., 2005) GIV siRNA sequence used was custom-ordered from Dharmacon. For TAT-construct transduction, cells were incubated with 300-800 nM of the TAT-proteins for 30 min at 37° C. prior to three washes with PBS and addition of fresh growth media. For assays involving insulin (Novagen) stimulation of TAT-treated cells, such stimulation was carried out 90 min after transduction.
(§2) Unless otherwise indicated, serum starvation of cells for use in experiments involving insulin stimulation was carried out by growing cells overnight in the presence of no serum (i.e., 0% FBS) in the case of Cos7 and L6 cells, or in the presence of 0.2% FBS in the case of HeLa cells. To induce IR, cells were pre-treated with Sodium Palmitate (PA; Sigma-Aldrich) (0.5 mM, stock solution at 5 mM/5% FFA-free BSA in ethanol) or vehicle control (5% FFA-free BSA in ethanol) for 16 h. To reverse IR with TZDs, cells were treated with 50 μM Pioglitazone (Pio) (Sigma-Aldrich) or DMSO (vehicle control) for 18 h prior to stimulation with 100 nM insulin. Treatment with PKCθ pseudo-substrate inhibitor (Santa Cruz Biotechnologies) was performed at 10 μM for 16 h.
Protein samples for immunoblotting were run on SDS/PAGE gels and transferred onto PVDF membranes (Millipore). Membranes were blocked with PBS containing 5% non-fat milk (or with 5% BSA when probing for phosphorylated proteins) before incubation with primary antibodies. GIV was detected using rabbit anti-GIV coiled-coil (Millipore) (1:500); GIV-CT (Santa Cruz Biotechnologies) (1:500); phospho-Tyr1764-GIV (1:500) and phospho-Ser1689-GIV (21st Century Biochemicals) (1:250) antibodies. Other antibodies used in this work include rabbit polyclonal antibodies against Gαi3 (1:333), pan-GP (1:250) and phospho-IRS1 (1:500) from Santa Cruz Biotechnologies; and phospho-Akt (1:250); total Akt (1:250); phospho-ERK (1:250); phospho-AS160 (1:250); total InsRβ (1:500) and total IRS1 (1:500) from Cell signaling. Mouse monoclonal Abs against phospho-InsRβ (1:250), His (1:1000), β-tubulin (1:1000), GFP (1:500) from Santa Cruz Biotechnologies, and control IgG (Bio-Rad Laboratories) were commercially obtained. Goat anti-rabbit and goat anti-mouse Alexa Fluor 680 or IRDye 800 F(ab′)2 secondary antibodies were purchased from Li-Cor Biosciences. Images were processed with ImageJ software (NIH) and assembled as figure panels using Photoshop and Illustrator software (Adobe).

L6 myotubes = assay: Fluorometric 2-deoxyglucose uptake assay after insulin stimulation; assay type: cell-based, rat
Protocol: as §1, §2
Glucose uptake assays were performed without the use of radioisotopes as described previously (Yamamoto et al., 2006). HeLa and L6 cells grown in 6-well plates were stimulated with insulin in KRH Buffer [50 mM HEPES, 137 mM NaCl, 4.7 mM KCl, 1.85 mM CaCl2, 1.3 mM MgSO4, and 0.1% (w/v) BSA-FFA free, pH 7.4]. Cells were incubated with 1 mM 2-deoxyglucose (2-DG) for 20 min, washed, and subsequently lysed with 0.1 N NaOH. The lysates were transferred into eppendorf tubes and samples were incubated in a water bath maintained at 80° C. for 45 min to degrade endogenous NAD(P)H and NAD(P)^+. An equal volume each of 0.1 N HCl and Triethanolamine (200 mM TEA, pH 8.1) buffer were added to each tube. Samples were subsequently mixed with assay solution [50 mM TEA, 0.02% BSA-FFA free, 10 μM NAD(P)^+, 0.2 U/ml Diaphorase, 6 nM Resazurin sodium, 15 U/ml G6PDH (Santa Cruz Biotechnologies)] and incubated at 37° C. for 90 min. Fluorescence intensity (λex=550 nM, λem=590 nM) was determined using a Tecan Inifinite M1000 PRO and normalized to total protein, as determined using BCA assay (Thermo Scientific).

[2] = system: GIV binding to GST-Gαi3 [preloaded with GDP]; assay: GST-Gαi3 pulldown of GIV from lysates of PA-treated L6 myoblasts; conditions: L6 treated with PA 0.5 mM, 16 h
Protocol: (§3) Purified GST-Gαi3, GST-tagged IRS1 domains or GST alone were immobilized on glutathione-Sepharose beads (GE Healthcare) for 1 h at room temperature as described before (Garcia-Marcos et al., 2012; Ghosh et al., 2010; Ghosh et al., 2008; Lin et al., 2011). L6 lysates or His-GIV CT protein were added to each tube, and binding reactions were carried out for 4 h at 4° C. with constant tumbling in binding buffer [50 mM Tris-HCl (pH 7.4), 100 mM NaCl, 0.4% (v:v) Nonidet P-40, 10 mM MgCl2, 5 mM EDTA, 2 mM DTT, protease inhibitor mixture]. Beads were washed (4×) with 1 mL of wash buffer [4.3 mM Na2HPO4, 1.4 mM KH2PO4 (pH 7.4), 137 mM NaCl, 2.7 mM KCl, 0.1% (v:v) Tween 20, 10 mM MgCl2, 5 mM EDTA, 2 mM DTT] and bound complexes were eluted by boiling in Laemmli's sample buffer. When GST-Gαi3 was used in the assay, both binding buffer and washing buffer were supplemented with 30 μM GDP and bound proteins were eluted by incubating at 37° C.

[3] = target: T1, GST-tagged domains of IRS1 (Rattus norvegicus, UniProt P35570); assay: Pulldown of recombinant His-GIV-CT with GST-tagged IRS1 domains; assay type: binding; conditions: recombinant proteins
T1 construct: GST-tagged IRS1 domains (N: aa 2-516, M: aa 526-859 and C: 900-1235); made in house
T1 sequence (P35570 2-516): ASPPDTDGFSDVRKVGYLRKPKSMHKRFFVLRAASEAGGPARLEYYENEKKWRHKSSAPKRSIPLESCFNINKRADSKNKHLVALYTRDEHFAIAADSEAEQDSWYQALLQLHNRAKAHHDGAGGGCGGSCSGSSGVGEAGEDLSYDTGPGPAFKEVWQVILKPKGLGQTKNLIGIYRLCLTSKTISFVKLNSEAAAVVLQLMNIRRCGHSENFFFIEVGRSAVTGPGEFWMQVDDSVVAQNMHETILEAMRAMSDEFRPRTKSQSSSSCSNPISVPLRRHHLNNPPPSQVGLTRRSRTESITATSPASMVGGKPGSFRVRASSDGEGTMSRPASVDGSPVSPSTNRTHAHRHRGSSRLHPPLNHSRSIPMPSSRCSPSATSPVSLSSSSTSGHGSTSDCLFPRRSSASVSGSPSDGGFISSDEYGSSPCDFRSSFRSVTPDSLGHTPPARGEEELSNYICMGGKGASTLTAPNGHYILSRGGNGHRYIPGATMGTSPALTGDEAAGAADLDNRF
Protocol: as §3

| Molecule | phosphorylation of GIV at Y1764 ([1]; L6 cells treated with PA) | phosphorylation of GIV at S1689 ([1]; L6 cells treated with PA (0.5 mM, 16 h)) | induction of IR (glucose-uptake response to insulin) (L6 myotubes; L6-GIV-SA cells (S1689A)) | induction of IR (glucose-uptake response to insulin) (L6 myotubes; L6-GIV-WT cells) | GIV's ability to bind Gi (Gαi3) [2] | binding to IRS1 domains [3] |
| --- | --- | --- | --- | --- | --- | --- |
| CCCCCCCCCCCCCCCC(=O)[O-].[Na+] [PA, Sodium Palmitate, reference compound] | suppressed | enhanced | resistant to PA | induced IR | reduced; also recorded: loss of binding |  |
| B1 |  |  |  |  |  | specifically bound the N-terminus of IRS1 |

Reference: patent publication US10653749B2, “Targeting GIV-GEF-GI signaling for treating diverse diseases” (The Regents of the University of California, priority 2015, dated 2020)
